{"source": "patent US8318792B2", "about": "“Therapeutic agent for amyotrophic lateral sclerosis” (Nippon Medical School Foundation, priority 2006, dated 2012)", "key": {"G1H-G93A transgenic mice [1]": {"system": "G1H-G93A transgenic mice", "assay": "Clinical symptomatological evaluation (day of onset, survival period, disease period, stage periods)", "format": "in vivo, mouse", "procedure": "1) The procedure of concentration adjustment, and the amount and the procedure of administration of the compound (a) were as described below. As a base, 0.5% methylcellulose is prepared. 5 mg of the compound (a) is pulverized in an agate mortar, and then a small amount of 0.5% methylcellulose is added to form a complete suspension. Subsequently, a small amount of 0.5% methylcellulose is added gradually, so that finally 5 mg of the compound (a) is suspended in 10 mL of 0.5% methylcellulose. A sample of 5 mg of compound (a)/10 mL of 0.5% methylcellulose (5 mg/10 mL) was prepared by the above-described procedure, and thus the compound (a) was orally administered once a day in a dose of 5 mg per kg of the mouse body weight (5 mg/kg).\nAs the experimental animal, male transgenic mice over-expressing a high copy number (25 copies) of mutated human SOD1 gene with a G93A point mutation, i.e., B6SJL-TgN [SOD1-G93A]1Gur (G1H-G93A transgenic mice, JR2726; Hemizygote) (Gurney M E, et al., Science, 264, 1772-1775, 1994), were purchased from Jackson Laboratory (Bar Harbor, USA) and used. At the same time, wild-type male mice from the same litter, B6SJL-TgN[SOD1-G93A]1Gur (Wild-type), were also purchased from Jackson Laboratory and used.\nThe mice were subjected to a clinical symptomatological evaluation everyday. The clinical symptomatological evaluation was performed from one week after the arrival from Jackson Laboratory. […] The day of onset, the survival period and the disease period were indicated by the number of days. In regard to the indication of the number of days of the disease period, one day (one disease day) corresponds to within 24 hours from the onset (the “onset” is determined by the observation of the clinical symptomatological evaluation stage 1), and two days (two disease days) corresponds to more than 24 hours after and within 48 hours from the onset. Subsequent disease days after the onset were determined in the same manner.\nThe mice were divided into seven experimental groups, to which a placebo, the compound (a), compound (b), compound (c) or allopurinol was administered. That is, the seven groups consist of: an experimental group administered with placebo; a treatment experimental group administered with compound (a) before onset; a treatment experimental group administered with compound (a) after onset; a treatment experimental group administered with compound (b) before onset; a treatment experimental group administered with compound (c) before onset; a treatment experimental group administered with compound (c) after onset; and a treatment group administered with allopurinol before onset. Details of the respective groups will be described in the following.\nTen G1H-G93A transgenic mice were used. From the 80th day after birth, 5 mg/kg of the compound (a) was orally administered everyday. […]\nTen G1H-G93A transgenic mice were used. From the 80th day after birth, 5 mg/kg of the compound (b) was orally administered everyday.\nTen G1H-G93A transgenic mice were used. From the 80th day after birth, 5 mg/kg of the compound (c) was orally administered everyday. […]\nTen G1H-G93A transgenic mice were used. From the 80th day after birth, 5 mg/kg of allopurinol was orally administered everyday.\nIn regard to the results of the clinical symptomatological evaluation, the day of onset, the survival period (days taken to show quadriplegia and to reach the moribund state), the disease period (days taken to show quadriplegia and to reach the moribund state, from the day of onset), and the time periods for the respective stages of the clinical symptomatological evaluation, were indicated by the average±standard deviation. In regard to the results of the exercise tolerance test, the score values of the respective exercise tolerance tests, including the extension reflex test, inclined plane test, footprint test, rotarod test and beam balance test, were indicated by the average±standard deviation. […]"}, "G1H-G93A transgenic mice [2]": {"system": "G1H-G93A transgenic mice", "assay": "Exercise tolerance test: inclined plane test", "format": "in vivo, mouse", "details": "for Inclined plane test score: 5 mg/kg oral daily from 80th day (before onset), score 0-3, 5 mg/kg", "procedure": "The following five kinds of exercise tolerance tests were conducted every fifth day from the 70th day after birth to evaluate the ability to exercise in the respective exercise tolerance tests. That is, the days for the exercise tolerance tests were every fifth days, such as the 70th day, 75th day, 80th day, 85th day and so on, after birth. The exercise tolerance tests were conducted throughout the survival period, and the post-mortem evaluation was based on the definitions of the following five kinds of exercise tolerance tests.\nThe apparatus used in the inclined plane test is an apparatus allowing a wooden board to be fixed at the respective angles of 45°, 65° and 80° from a horizontal plane. A mouse is placed in the posture of head-up position on the wooden board inclined at each angle and the mouse is allowed to maintain this position for 5 seconds without falling downward. In the evaluation method of the inclined plane test for each mouse, the number of seconds (TA seconds: 5 seconds or less) during which the position could be maintained without falling downward is measured at each of the angles (A) of 45°, 65° and 80°, and then the total sum value of the products of the angle (A) and the number of seconds (TA) during which the position could be maintained: Σ [Angle(A)×Time (TA)] is calculated. Since a normal mouse is capable of maintaining the position on the wooden board inclined to the respective angles for 5 seconds, the sum value of Σ [Angle(A)×Time (TA)] will be 80×5+65×5+45×5=950. The evaluation of the inclined plane test for the mouse was performed based on the following criteria: Score 0=950; Score 1=over 550 to less than 950; Score 2=over 225 to 550; and Score 3=225 and below. The post-mortem evaluation of the inclined plane test is defined as score 3."}, "[3]": {"details": "5 mg/kg oral daily from 80th day after birth (before onset), Mann-Whitney's U test, log-rank test"}, "[4]": {"details": "5 mg/kg oral once a day from 80th day after birth (before onset), average±SD"}}}
{"smiles": "N#Cc1cc(-c2n[nH]c(-c3ccncc3)n2)ccn1", "note": "[compound (b), 4-(5-pyridin-4-yl-1H-[1,2,4]triazol-3-yl)pyridine-2-carbonitrile]", "values": [{"measurement": "time periods for the respective stages in comparison to placebo group", "setting": "G1H-G93A transgenic mice [1]; 5 mg/kg oral daily from 80th day after birth (before onset), Mann-Whitney's U test", "value": "extended period of the respective stages with significant difference"}, {"measurement": "disease period extending effect in comparison to placebo group", "setting": "G1H-G93A transgenic mice [1]; [3]", "value": "significant extension of the disease period"}, {"measurement": "onset delaying effect in comparison to placebo group", "setting": "G1H-G93A transgenic mice [1]; [3]", "value": "significant delaying of the day of onset"}, {"measurement": "survival period extending effect in comparison to placebo group", "setting": "G1H-G93A transgenic mice [1]; [3]", "value": "significant extension of the survival period"}, {"measurement": "day of onset", "setting": "G1H-G93A transgenic mice [1]; [4]", "value": "111.6 ± 3.7", "unit": "days"}, {"measurement": "disease period", "setting": "G1H-G93A transgenic mice [1]; [4]", "value": "24.3 ± 3.4", "unit": "days"}, {"measurement": "survival period", "setting": "G1H-G93A transgenic mice [1]; [4]", "value": "134.9 ± 3.4", "unit": "days"}, {"measurement": "time period of clinical symptomatological stage 1", "setting": "G1H-G93A transgenic mice [1]; [4]", "value": "7.4±0.7", "unit": "days"}, {"measurement": "time period of clinical symptomatological stage 2", "setting": "G1H-G93A transgenic mice [1]; [4]", "value": "6.4±1.2", "unit": "days"}, {"measurement": "time period of clinical symptomatological stage 3", "setting": "G1H-G93A transgenic mice [1]; [4]", "value": "5.3±1.2", "unit": "days"}, {"measurement": "time period of clinical symptomatological stage 4", "setting": "G1H-G93A transgenic mice [1]; [4]", "value": "3.5±0.5", "unit": "days"}, {"measurement": "time period of clinical symptomatological stage 5", "setting": "G1H-G93A transgenic mice [1]; [4]", "value": "1.7±0.5", "unit": "days"}, {"measurement": "Inclined plane test score", "setting": "G1H-G93A transgenic mice [2]; 70th day after birth", "value": "0.0±0.0"}, {"measurement": "Inclined plane test score", "setting": "G1H-G93A transgenic mice [2]; 75th day after birth", "value": "0.0±0.0"}, {"measurement": "Inclined plane test score", "setting": "G1H-G93A transgenic mice [2]; 80th day after birth", "value": "0.0±0.0"}, {"measurement": "Inclined plane test score", "setting": "G1H-G93A transgenic mice [2]; 85th day after birth", "value": "0.0±0.0"}, {"measurement": "Inclined plane test score", "setting": "G1H-G93A transgenic mice [2]; 90th day after birth", "value": "0.0±0.0"}, {"measurement": "Inclined plane test score", "setting": "G1H-G93A transgenic mice [2]; 95th day after birth", "value": "0.0±0.0"}, {"measurement": "Inclined plane test score", "setting": "G1H-G93A transgenic mice [2]; 100th day after birth", "value": "0.0±0.0"}, {"measurement": "Inclined plane test score", "setting": "G1H-G93A transgenic mice [2]; 105th day after birth", "value": "0.0±0.0"}, {"measurement": "Inclined plane test score", "setting": "G1H-G93A transgenic mice [2]; 110th day after birth", "value": "0.0±0.0"}, {"measurement": "effect in inclined plane test as compared to placebo group", "setting": "G1H-G93A transgenic mice [2]; 110th, 115th, 120th, 125th and 130th day, 5 mg/kg oral daily from 80th day after birth, Mann-Whitney's U test", "value": "significant effects"}, {"measurement": "Inclined plane test score", "setting": "G1H-G93A transgenic mice [2]; 115th day after birth", "value": "0.1±0.3"}, {"measurement": "Inclined plane test score", "setting": "G1H-G93A transgenic mice [2]; 120th day after birth", "value": "0.6±0.7"}, {"measurement": "Inclined plane test score", "setting": "G1H-G93A transgenic mice [2]; 125th day after birth", "value": "1.4±0.7"}, {"measurement": "Inclined plane test score", "setting": "G1H-G93A transgenic mice [2]; 130th day after birth", "value": "2.3±0.7"}, {"measurement": "Inclined plane test score", "setting": "G1H-G93A transgenic mice [2]; 135th day after birth", "value": "2.9±0.3"}, {"measurement": "Inclined plane test score", "setting": "G1H-G93A transgenic mice [2]; 140th day after birth", "value": "3.0±0.0"}]}
